Assay results from patent US12139477B2, “Compounds, salts thereof and methods for treatment of diseases” (ACADIA PHARMACEUTICALS INC., priority 2017, dated 2024).

What was measured:
hERG channel = target: T1, hERG channel (Homo sapiens, UniProt Q12809); experiment: hERG assay, whole cell recordings in CHO cells (AVIVA); type: cell-based; conditions: CHO cells stably expressing hERG, pH 7.4
T1 construct: host or cells: CHO cells, stably transfected
Outline: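 Whole-cell voltage clamp of CHO cells stably expressing hERG, held at −80 mV; steps to +20 mV for 5 s, then −50 mV for 5 s, with tail current measured against a −50 mV baseline, every 12 s. Compounds applied in 4 additions until steady state (max 12 min), vs 0.1% DMSO vehicle baseline.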

hERG potassium channel = hERG potassium channel (Homo sapiens, UniProt Q12809); experiment: hERG manual patch clamp, HEK293 cells (CR-CLE)
hERG potassium channel, sequence (Q12809 whole entry): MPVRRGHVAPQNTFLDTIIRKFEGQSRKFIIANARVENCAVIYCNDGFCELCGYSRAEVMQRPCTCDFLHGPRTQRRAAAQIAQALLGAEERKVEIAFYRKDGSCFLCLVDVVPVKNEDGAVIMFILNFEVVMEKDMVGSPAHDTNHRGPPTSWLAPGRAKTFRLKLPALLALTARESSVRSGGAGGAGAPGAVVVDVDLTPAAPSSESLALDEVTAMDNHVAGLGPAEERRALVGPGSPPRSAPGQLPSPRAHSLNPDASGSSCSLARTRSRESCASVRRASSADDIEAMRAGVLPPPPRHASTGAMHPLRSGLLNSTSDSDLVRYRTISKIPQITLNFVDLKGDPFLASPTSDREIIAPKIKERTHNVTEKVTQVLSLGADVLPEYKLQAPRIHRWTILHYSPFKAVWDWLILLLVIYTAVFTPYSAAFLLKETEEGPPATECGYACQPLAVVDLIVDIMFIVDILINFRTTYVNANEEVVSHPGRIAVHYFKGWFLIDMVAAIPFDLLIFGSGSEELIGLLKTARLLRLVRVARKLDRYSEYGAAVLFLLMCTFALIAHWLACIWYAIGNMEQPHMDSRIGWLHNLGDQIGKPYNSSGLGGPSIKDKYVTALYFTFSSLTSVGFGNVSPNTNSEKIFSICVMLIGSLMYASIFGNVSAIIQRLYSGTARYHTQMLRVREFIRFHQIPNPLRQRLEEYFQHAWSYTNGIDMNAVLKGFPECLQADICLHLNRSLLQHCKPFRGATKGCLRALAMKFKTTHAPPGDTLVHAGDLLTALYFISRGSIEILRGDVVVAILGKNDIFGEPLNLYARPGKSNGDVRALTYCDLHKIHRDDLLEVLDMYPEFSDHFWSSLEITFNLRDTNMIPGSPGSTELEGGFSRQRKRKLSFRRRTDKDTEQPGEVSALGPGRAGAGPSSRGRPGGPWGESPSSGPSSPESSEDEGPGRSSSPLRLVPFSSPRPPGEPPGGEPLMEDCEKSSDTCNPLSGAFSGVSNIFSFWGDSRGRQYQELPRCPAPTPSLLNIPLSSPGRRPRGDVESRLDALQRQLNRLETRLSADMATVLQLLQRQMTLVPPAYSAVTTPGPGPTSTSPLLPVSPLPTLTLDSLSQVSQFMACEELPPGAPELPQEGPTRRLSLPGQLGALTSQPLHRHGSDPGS
Experimental: Each cell acted as its own control.
Temperature was measured using a thermistor probe in the recording chamber.

5HT2A = 5HT2A (Homo sapiens, UniProt P28223); experiment: Receptor Selection and Amplification (R-SAT) functional assay; type: cell-based; set-up: expressed in transfected cells; host or cells: NIH3T3 cells, pSI mammalian expression vector; conditions: NIH3T3 cells; Ki from IC50 by Cheng and Prussoff; read-out: 5-HT2a (pKi) (R-SAT) (converted)
5HT2A, sequence (P28223 whole entry): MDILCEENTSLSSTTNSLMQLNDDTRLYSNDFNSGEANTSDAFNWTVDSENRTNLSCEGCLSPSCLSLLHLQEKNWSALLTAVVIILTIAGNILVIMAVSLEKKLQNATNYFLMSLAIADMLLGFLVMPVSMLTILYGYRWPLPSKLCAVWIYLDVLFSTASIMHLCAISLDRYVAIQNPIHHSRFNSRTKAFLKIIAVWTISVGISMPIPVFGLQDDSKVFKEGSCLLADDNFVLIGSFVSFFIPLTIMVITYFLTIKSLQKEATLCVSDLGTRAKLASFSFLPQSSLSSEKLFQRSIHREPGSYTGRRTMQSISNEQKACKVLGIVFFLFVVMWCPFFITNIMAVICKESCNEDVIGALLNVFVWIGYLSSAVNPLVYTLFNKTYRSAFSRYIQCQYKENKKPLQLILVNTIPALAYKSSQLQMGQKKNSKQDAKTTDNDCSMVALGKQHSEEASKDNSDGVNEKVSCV
From the text: Receptor Selection and Amplification (R-SAT) Assays. […] The IC50 determined in the RSAT assay was converted into a Ki value using the method of Cheng and Prussoff, Biochem Pharmacol., 1973 Dec. 1; 22(23):3099-108. pKi is the negative of the log(Ki).

T1 sequence (Q12809 whole entry): as the sequence (Q12809 whole entry) above

| Ki (5HT2A) | Structure (SMILES) | inhibition at 1 µM (hERG channel) | IC50 (hERG potassium channel) |
| --- | --- | --- | --- |
| 0.00126 µM | CC(C)COc1ccc(CNC(=O)N(Cc2ccc(F)cc2F)C2CCN(C)CC2)cc1 [Example 3, 1-[(2,4-difluorophenyl)methyl]-1-(1-methylpiperidin-4-yl)-3-{[4-(2-methylpropoxy)phenyl]methyl}urea] | 33% | 0.5 µM |
| 0.001 µM | CC(C)Oc1ccc(CNC(=O)N(Cc2ccc(F)cc2F)C2CCN(C)CC2)cc1 [Example 5, 1-[(2,4-difluorophenyl)methyl]-1-(1-methylpiperidin-4-yl)-3-{[4-(propan-2-yloxy)phenyl]methyl}urea] | 29% | 1.8 µM |
| 0.000398 µM | CN1CCC(N(Cc2ccc(F)cc2F)C(=O)NCc2ccc(OC3CC3)cc2)CC1 [Example 17, 3-[(4-cyclopropoxyphenyl)methyl]-1-[(2,4-difluorophenyl)methyl]-1-(1-methylpiperidin-4-yl)urea] | 32% | 1.8 µM |
